In patent publication US20130071933A1, “CITRUS SHOOT REGENERATION COMPOSITIONS, METHODS, AND SYSTEMS” (priority 2011, published 2013):
Entries after “also recorded” stand apart in the source; their conditions may differ.

Key:
[1] = system: cotyledonary explants of Jute; details: cited from earlier work
[2] = system: shoots regenerated from mature stem segments of sweet orange cv. Hamlin; assay: Grafting of regenerated adventitious shoots onto rough lemon rootstock: survival and growth; format: in vivo, Citrus sinensis
Description: Adventitious shoots (0.5 cm long) were excised from mature stem segments and grafted in vivo onto rough lemon seedlings. Briefly, rough lemon seedlings (approx. 25-30 cm in height) were decapitated (approx. 15 cm above ground) where the diameter of the stem equals the width of the shoot (2-3 mm). A 5 mm deep longitudinal cut is made into the cambium layer of the seedling into which the shoot is wedged and the grafted area sealed with Parafilm. The shoot is wounded, each side, by removing approx. 1 mm of the surface with a scalpel blade in the same plane as the exposed cambium layer to promote growth of the new shoot. The whole plant is covered with a clear plastic bag and maintained in the light (100 μm^−2s^−1 cool light fluorescent tubes) under a 16 h photoperiod at 22-24° C. After approx. 21 d, the grafted shoot starts to grow and the bag is gradually opened to aid acclimatization. The plant is then transferred to the greenhouse approx. 28 d later and allowed to grow to maturity.
Shoots (approx. 1 cm in length) were excised from explants and grafted onto a rough lemon rootstock to allow growth and development. […] This phenotype of growth and development is typical of a mature citrus tree as observed in previous studies on the tissue culture of mature internodal stem segments (Cervera et al., 1998, Transgenic Res 7: 51-59).

[3] = system: mature internodal stem segments of sweet orange cv. Hamlin; assay: Culture of explants on DBA3 medium with surfactant: fresh weight and shoot regeneration; format: cell-based, Citrus sinensis; details: for % Organogenic explants / Total shoot yield: 60 explants/treatment
Experimental: Mature budwood collected from C. sinensis cv. Hamlin from virus-free greenhouse material were grafted onto seedlings of rough lemon (C. jambhiri Lush.) and maintained in a greenhouse (20-27° C.). The developing shoots were allowed to grow as one, two and three flushes, each used separately for experimental studies. Shoots (approx. 20 cm in length) were pruned from each plant and used for explant preparation. The stems were stripped of their thorns and leaves, surface-sterilized in 70% ethanol (1 min), disinfected for 20 min in 20% (v/v) domestic bleach solution containing 0.2% (v/v) Tween® 20 and washed five times with sterile distilled water. Internodal stem explants were cut transversely into 1 cm long segments and placed horizontally onto the culture media with the cut ends submerged (approx. 2 mm) into the medium. […] The non-ionic surfactants were dissolved in sterile-distilled water and then filter-sterilized before adding to the medium after autoclaving, along with filter-sterilized Gamborg B5 vitamins and de-proteinized coconut water. Cultures were maintained in the light (60 μm m^−2s^−1 cool light fluorescent tubes) under a 16 h photoperiod at 28±2° C. and subcultured at 21-28 d intervals. After 10 weeks, the weight of each explant and the number of adventitious shoots was recorded. This experiment was repeated for each of the first three flushes of shoots to compare growth and shoot regeneration efficiencies.

[4] = Flush 1, surfactant 0.001%, 10 weeks of culture
[5] = Flush 1, surfactant 0.01%, 10 weeks of culture
[6] = Flush 1, surfactant 0.1%, 10 weeks of culture
[7] = Flush 1, surfactant 0.5%, 10 weeks of culture
[8] = Flush 2, surfactant 0.001%, 10 weeks of culture
[9] = Flush 2, surfactant 0.01%, 10 weeks of culture
[10] = Flush 2, surfactant 0.1%, 10 weeks of culture
[11] = Flush 2, surfactant 0.5%, 10 weeks of culture
[12] = Flush 3, surfactant 0.001%, 10 weeks of culture
[13] = Flush 3, surfactant 0.01%, 10 weeks of culture
[14] = Flush 3, surfactant 0.1%, 10 weeks of culture
[15] = Flush 3, surfactant 0.5%, 10 weeks of culture
[16] = shoots from explants cultured at 0.001-0.1% (v/v), rough lemon rootstock

polyoxyethylene (20) sorbitan monolaurate [Tween® 20]
fresh weight gain ([1]; 0.001-0.01% (v/v)): significantly increased | number of regenerants ([1]; 0.001-0.01% (v/v)): significantly increased | growth ([1]; 0.5% (v/v)): inhibitory to growth | shoot production ([1]; 0.5% (v/v)): inhibited | shoot regeneration of jute cotyledons [1]: able to promote shoot regeneration | growth of vitrified shoots following grafting ([2]; shoots from explants cultured on DBA3 with surfactant (0.01-0.5% (v/v))): failed to graft successfully in vivo; also recorded: all failed to initiate growth following grafting | Mean fresh weight [3, 4]: 273 ± 15 mg | Mean number of shoots per explant [3, 4]: 0.23 ± 0.08 | % Organogenic explants [3, 4]: 15% | Total shoot yield [3, 4]: 14 | Mean fresh weight [3, 5]: 218 ± 12 mg | Mean number of shoots per explant [3, 5]: 0.25 ± 0.07 | % Organogenic explants [3, 5]: 18.5% | Total shoot yield [3, 5]: 15 | Mean fresh weight [3, 6]: 269 ± 13 mg | Mean number of shoots per explant [3, 6]: 0.31 ± 0.08 | % Organogenic explants [3, 6]: 23% | Total shoot yield [3, 6]: 19 | Mean fresh weight [3, 7]: 253 ± 12 mg | Mean number of shoots per explant [3, 7]: 0.18 ± 0.06 | % Organogenic explants [3, 7]: 15% | Total shoot yield [3, 7]: 11 | Mean fresh weight [3, 8]: 240 ± 15 mg | Mean number of shoots per explant [3, 8]: 0.22 ± 0.07 | % Organogenic explants [3, 8]: 15% | Total shoot yield [3, 8]: 13 | Mean fresh weight [3, 9]: 260 ± 13 mg | Mean number of shoots per explant [3, 9]: 0.20 ± 0.07 | % Organogenic explants [3, 9]: 13.5% | Total shoot yield [3, 9]: 12 | Mean fresh weight [3, 10]: 302 ± 19 mg | Mean number of shoots per explant [3, 10]: 0.22 ± 0.07 | % Organogenic explants [3, 10]: 17% | Total shoot yield [3, 10]: 13 | Mean fresh weight [3, 11]: 250 ± 13 mg | Mean number of shoots per explant [3, 11]: 0.17 ± 0.06 | % Organogenic explants [3, 11]: 13.5% | Total shoot yield [3, 11]: 10 | Mean fresh weight [3, 12]: 193 ± 8 mg | Mean number of shoots per explant [3, 12]: 0.07 ± 0.03 | % Organogenic explants [3, 12]: 7% | Total shoot yield [3, 12]: 4 | Mean fresh weight [3, 13]: 161 ± 7 mg | Mean number of shoots per explant [3, 13]: 0.05 ± 0.03 | % Organogenic explants [3, 13]: 5% | Total shoot yield [3, 13]: 3 | Mean fresh weight [3, 14]: 155 ± 7 mg | Mean number of shoots per explant [3, 14]: 0.08 ± 0.04 | % Organogenic explants [3, 14]: 8.5% | Total shoot yield [3, 14]: 5 | Mean fresh weight [3, 15]: 130 ± 6 mg | Mean number of shoots per explant [3, 15]: 0.05 ± 0.03 | % Organogenic explants [3, 15]: 5% | Total shoot yield [3, 15]: 3 | weight of explants compared to medium without surfactant ([3]; all three flushes of growth): no significant difference

polyethylene glycol p-(1,1,3,3-tetramethylbutyl)-phenyl ether [Triton® X-100]
growth of explants ([1]; 0.001% (v/v)): increased also the growth | state of shoots after transfer to shoot elongation medium ([1]; 0.001%, after 14-21 days): became necrotic | shoot regeneration of jute cotyledons [1]: able to promote shoot regeneration | growth and regeneration of explants ([1]; concentrations above 0.001% (v/v)): inhibited the growth and regeneration | shoots survived / shoots grafted [2, 16]: 5/15 | survival rate of shoots following grafting [2, 16]: 33% | Mean fresh weight ([3]; 0.001% (v/v) in DBA3, first flush): 347±24 mg f. wt. | number of shoots per explant and number of explants giving shoots compared to the control ([3]; 0.001% (v/v) in DBA3, first two flushes): lower compared to the control | Mean fresh weight ([3]; 0.001% (v/v) in DBA3, second flush): 309±23 mg f. wt. | fresh weight gain, number of shoots per explant and number giving shoots compared to DBA3 without surfactant ([3]; 0.1-0.5% (v/v) in DBA3): significantly (P<0.05) reduced | shoot regeneration ([3]; 0.5% (v/v) in DBA3): failed to regenerate shoots | Mean fresh weight [3, 4]: 347 ± 24 mg | Mean number of shoots per explant [3, 4]: 0.13 ± 0.06 | % Organogenic explants [3, 4]: 10% | Total shoot yield [3, 4]: 8 | Mean fresh weight [3, 5]: 254 ± 13 mg | Mean number of shoots per explant [3, 5]: 0.18 ± 0.07 | % Organogenic explants [3, 5]: 13.5% | Total shoot yield [3, 5]: 11 | Mean fresh weight [3, 6]: 153 ± 7 mg | Mean number of shoots per explant [3, 6]: 0.08 ± 0.04 | % Organogenic explants [3, 6]: 6.5% | Total shoot yield [3, 6]: 5 | Mean fresh weight [3, 7]: 75 ± 3 mg | Mean number of shoots per explant [3, 7]: 0.00 ± 0.00 | % Organogenic explants [3, 7]: 0% | Total shoot yield [3, 7]: 0 | Mean fresh weight [3, 8]: 309 ± 23 mg | Mean number of shoots per explant [3, 8]: 0.07 ± 0.03 | % Organogenic explants [3, 8]: 6.5% | Total shoot yield [3, 8]: 4 | Mean fresh weight [3, 9]: 264 ± 14 mg | Mean number of shoots per explant [3, 9]: 0.10 ± 0.05 | % Organogenic explants [3, 9]: 6.5% | Total shoot yield [3, 9]: 6 | Mean fresh weight [3, 10]: 158 ± 7 mg | Mean number of shoots per explant [3, 10]: 0.05 ± 0.03 | % Organogenic explants [3, 10]: 5% | Total shoot yield [3, 10]: 3 | Mean fresh weight [3, 11]: 85 ± 4 mg | Mean number of shoots per explant [3, 11]: 0.00 ± 0.00 | % Organogenic explants [3, 11]: 0% | Total shoot yield [3, 11]: 0 | Mean fresh weight [3, 12]: 135 ± 7 mg | Mean number of shoots per explant [3, 12]: 0.08 ± 0.04 | % Organogenic explants [3, 12]: 6.5% | Total shoot yield [3, 12]: 5 | Mean fresh weight [3, 13]: 126 ± 6 mg | Mean number of shoots per explant [3, 13]: 0.02 ± 0.02 | % Organogenic explants [3, 13]: 1.5% | Total shoot yield [3, 13]: 1 | Mean fresh weight [3, 14]: 89 ± 3 mg | Mean number of shoots per explant [3, 14]: 0.00 ± 0.00 | % Organogenic explants [3, 14]: 0% | Total shoot yield [3, 14]: 0 | Mean fresh weight [3, 15]: 61 ± 8 mg | Mean number of shoots per explant [3, 15]: 0.00 ± 0.00 | % Organogenic explants [3, 15]: 0% | Total shoot yield [3, 15]: 0
